From US9560848B2, “Method and compositions for biofouling deterrence” (Clemson University, priority 2008, dated 2017)

How the values were obtained:
Oyster larvae [1] = assay: Treatment of oyster larvae with micromolar concentrations of noradrenalin; assay type: in vivo
Description: Effect of Treatment of Oyster Larvae with Micromolar Concentrations of Noradrenalin

[2] = tested on: cyprids of the barnacle Balanus amphitrite; assay type: in vivo
Method: Barnacle cyprids were challenged with 30-100 micro molar ranges of noradrenalin. Barnacle cyprids were monitored and assayed over period of 120 hours (5 days). Cyprid metamorphosis was imaged at 24, 48, 96, 120 hour intervals. Images were taken at each intervals and samples preserved for SEM analysis. On the last day of the experiments the metamorphosed barnacles were assayed for viability. The experiments were repeated 4 times with 3 replicates per experiment. […] Post NA treatment, either by flash induction or by incubating the cyprids in ASW containing NA. […] The onset of ecdysis was observed between 24 hr and 48 hr post NA treatment. Metamorphosing juvenile barnacles were seen encased in bivalve cyprid carapace. The pumping action of the thorax similar to beating of cirri was also observed (Glenner and Høeg 1993). […] Some ecdysing barnacles were still encased in cyprid carapaces while others had shed the bivalve carapace. The cyprids that had shed carapace were presumed to have ‘grown’ out of it as opposed to have shed carapace voluntarily as observed in untreated attached cyprids (Glenner and Høeg 1993). […] Ninety-six hours post NA treatment, the operculum with tergal and scutal plates is well demarcated from the wall plates. In contrast, control barnacles can be seen fully calcified with well recognizable wall and opercular shell plates at around 24-48 hr post settlement. Thus the NA treated cyprids took 96 hr to fully metamorphose and calcify but remained unattached and un-cemented to the substratum.
Exploration of surfaces by invertebrate larvae is an important step leading to attachment and metamorphosis into juveniles. Oyster pediveliger larvae and barnacle cyprid larvae investigate surfaces using exploratory structures bearing an array of sensory cells. The effect of the neurotransmitter noradrenaline (NA) was investigated on the cyprids of the barnacle Balanus amphitrite. 1 day old cyprids were challenged with micro-molar concentrations of NA ranging from […] and assayed over 5 days. […] Remnants of cyprid organs such as the antennules were clearly visible in metamorphosed juveniles. […] Cyprids are compared to oyster larvae to understand the effects of NA on the signal transduction cascades involved in larval settlement and to explore NAs potential as a natural fouling deterrent. Materials and Methods One day old cypris larvae of the B. amphitrite were challenged with […] of noradrenaline. Cyprids were challenged in two different ways. One group was flash challenged for 3 hours then washed with artificial sea water (ASW) and incubated in ASW free of NA for the remaining duration of the experiment. The second group was incubated with NA for 24 hours then washed and incubated in ASW for the remaining duration of the experiment. Barnacle cyprids were monitored and assayed over period of 120 hours (5 days). Cyprid metamorphosis was imaged at 24, 48, 96, 120 hour intervals. Images were taken at each intervals and samples preserved for SEM analysis. The cyprid larvae were imaged using, Zeiss discovery V12 stereo-microscope, Nikon AZ100 stereo-macrosope and the Hitachi-4800 field emission scanning electron microscope. On the last day of the experiments the metamorphosed barnacles were assayed for viability. Viability was ascertained by observing the movement of cirri and ability of the metamorphosed barnacles to feed normally. The experiments were repeated 4 times with 3 replicates per experiment.

Oyster larvae [3] = conditions: Coon, Bonar et al 1986; cited from earlier work

For `NCC(O)c1ccc(O)c(O)c1` (racemic) [NA, DL-noradrenaline], the “metamorphosis of treated oyster larvae” value (Oyster larvae [1]) was “metamorphose into adult oysters without cementation”, the “settling behavior and cementation of oyster larvae” value (Oyster larvae [1]) was “complete disruption of the settling behavior and cementation” and the “viability and development of treated oysters” value (Oyster larvae [1]) was “viable and develop normally into adults”. For the same molecule, the “metamorphosis of treated cyprids” value ([2]; 30-100 micro molar NA) was “metamorphosed into adults”, the “settling, attachment or cementation of cyprids” value ([2]; 30-100 micro molar NA, flash challenge 3 hours or 24 hours incubation, monitored 120 hours, listed as noradrenalin) was “prevented them from settling or attaching to a surface” and the “time to fully metamorphose and calcify” value ([2]; NA treated cyprids, controls 24-48 hr post settlement) was 96 h. For the same molecule, the “swimming of cyprids post NA treatment” value ([2]; flash induction or incubation in ASW containing NA) was “stopped swimming and sank to the bottom”, the “appearance of juvenile barnacles compared to controls” value ([2]; in vivo) was “appeared to be normal” and the “onset of ecdysis post NA treatment” value ([2]; post NA treatment) was 24 to 48 h. For the same molecule, the “swimming of NA treated oyster larvae” value (Oyster larvae [3]) was “stopped swimming and sank to the bottom of petri dishes”.
